# Paper PMC7618122 (American journal of physiology. Heart and circulatory …, 2025)
# Biological target: T1, Nav1.5 (Homo sapiens, UniProt Q14524, F1760A)
# T1 construct: gene SCN5A
smiles,measurement,value
"Cc1cccc(C)c1OCC(C)N (stereo not shown) [MEXI, mexiletine]",whole-cell patch clamp of tsA201 cells after 24-h incubation with 100 μM; effect,"Nav1.5-F1760A peak INa densities, on the other hand, were significantly enhanced after 24-h incubation with MEXI"
